According to ChEMBL document CHEMBL1629468, “Synthesis and antitumor activity of novel benzimidazole-5-carboxylic acid derivatives and their transition metal complexes as topoisomerease II inhibitors” (2010):

Legend:
[1] = Growth inhibition of human gastric cancer cells after 72 hrs by sulforhodamine B assay; type: functional; settings: Cancer cell lines, Stomach, pooled result: one value given for 3 cell lines, strains, targets or settings
Cancer cell lines [2] = assay: Ratio of compound GI50 to etoposide GI50 for human lung cancer cells; type: functional
Cancer cell lines [3] = assay: Ratio of compound GI50 to etoposide GI50 for human colon cancer cells; type: functional
Cancer cell lines [4] = assay: Ratio of compound GI50 to etoposide GI50 for human gastric cancer cells; type: functional, Stomach
[5] = target: DNA topoisomerase 2-alpha (Mus musculus) (UniProt Q01320); assay: Ratio of compound to etoposide on inhibitory effect of mouse DNA topoisomerase 2
Sequence of DNA topoisomerase 2-alpha (Mus musculus) (Q01320 whole entry): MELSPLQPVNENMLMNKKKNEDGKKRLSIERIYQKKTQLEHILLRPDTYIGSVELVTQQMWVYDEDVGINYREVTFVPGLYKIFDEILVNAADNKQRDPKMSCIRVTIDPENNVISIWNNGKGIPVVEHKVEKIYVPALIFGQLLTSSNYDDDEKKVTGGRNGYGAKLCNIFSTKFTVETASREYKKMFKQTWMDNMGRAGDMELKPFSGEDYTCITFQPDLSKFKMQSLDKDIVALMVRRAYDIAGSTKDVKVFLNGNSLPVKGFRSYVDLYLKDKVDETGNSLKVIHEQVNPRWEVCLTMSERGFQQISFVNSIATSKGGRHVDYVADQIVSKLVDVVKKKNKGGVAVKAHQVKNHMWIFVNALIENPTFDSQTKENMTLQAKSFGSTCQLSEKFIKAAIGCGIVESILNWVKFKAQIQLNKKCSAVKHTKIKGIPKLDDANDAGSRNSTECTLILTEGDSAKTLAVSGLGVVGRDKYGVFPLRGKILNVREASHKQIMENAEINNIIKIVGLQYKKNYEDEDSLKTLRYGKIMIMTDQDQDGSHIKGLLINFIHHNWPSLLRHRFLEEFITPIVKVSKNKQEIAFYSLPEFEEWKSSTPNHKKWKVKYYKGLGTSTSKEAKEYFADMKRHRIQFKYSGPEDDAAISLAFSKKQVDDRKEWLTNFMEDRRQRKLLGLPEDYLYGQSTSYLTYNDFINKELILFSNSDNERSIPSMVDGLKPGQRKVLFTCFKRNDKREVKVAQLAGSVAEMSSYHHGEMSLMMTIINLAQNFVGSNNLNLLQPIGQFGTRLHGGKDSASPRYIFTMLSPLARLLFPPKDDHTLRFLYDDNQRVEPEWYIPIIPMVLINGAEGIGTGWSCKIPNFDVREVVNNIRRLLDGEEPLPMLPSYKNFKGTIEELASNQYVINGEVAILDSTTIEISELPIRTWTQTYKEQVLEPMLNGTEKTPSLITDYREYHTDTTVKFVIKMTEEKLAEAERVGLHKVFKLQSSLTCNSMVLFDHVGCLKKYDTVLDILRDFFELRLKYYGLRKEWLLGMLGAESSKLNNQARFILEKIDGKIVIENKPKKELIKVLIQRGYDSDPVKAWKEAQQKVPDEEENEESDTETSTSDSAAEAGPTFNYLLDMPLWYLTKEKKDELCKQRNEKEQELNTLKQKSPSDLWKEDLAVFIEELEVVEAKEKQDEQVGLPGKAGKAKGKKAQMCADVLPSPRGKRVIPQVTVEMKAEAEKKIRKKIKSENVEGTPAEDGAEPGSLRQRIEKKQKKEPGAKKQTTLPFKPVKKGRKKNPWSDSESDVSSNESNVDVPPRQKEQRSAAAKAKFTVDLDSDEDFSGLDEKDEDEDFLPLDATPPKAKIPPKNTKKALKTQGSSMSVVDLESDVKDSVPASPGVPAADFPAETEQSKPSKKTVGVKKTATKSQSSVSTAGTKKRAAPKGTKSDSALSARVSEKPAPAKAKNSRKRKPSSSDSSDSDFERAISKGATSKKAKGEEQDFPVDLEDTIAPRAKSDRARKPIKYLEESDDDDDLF

| Structure (SMILES) | GI50 [1] [µM] | further results |
| --- | --- | --- |
| COc1cc([C@@H]2c3cc4c(cc3[C@@H](O[C@@H]3O[C@@H]5CO[C@@H](C)O[C@H]5[C@H](O)[C@H]3O)[C@H]3COC(=O)[C@H]23)OCO4)cc(OC)c1O [ETOPOSIDE] | 1.3 | – |
| O=C(O)c1ccc2[nH]c(CNc3ccccn3)nc2c1 | 22 | – |
| O=C(O)c1ccc2[nH]c(CNc3nc4ccccc4[nH]3)nc2c1 | > 100 | – |
| O=C(O)c1ccc2[nH]c(CCl)nc2c1 | > 100 | – |
| COc1cccc2c1C(=O)c1c(O)c3c(c(O)c1C2=O)C[C@@](O)(C(=O)CO)C[C@@H]3O[C@H]1C[C@H](N)[C@H](O)[C@H](C)O1 [DOXORUBICIN] | 0.065 | – |
| O=C(O)c1ccc2[nH]c(CNc3ccncc3)nc2c1 | 17 | – |
| O=C(O)c1ccc2[nH]c(CNc3nccs3)nc2c1 | 47 | – |
| CCc1c2c(nc3ccc(O)cc13)-c1cc3c(c(=O)n1C2)COC(=O)[C@]3(O)CC [7-ETHYL-10-HYDROXYCAMPTOTHECIN] | 0.066 | – |
| O=C(O)c1ccc2[nH]c(C[n+]3ccccc3)nc2c1.[Cl-] | 0.095 | RatioGI50 (Cancer cell lines [2]): 7; RatioGI50 (Cancer cell lines [3]): 7; RatioGI50 (Cancer cell lines [4]): 7; Ratio [5]: 10 |
